Assays:
[1] = tested on: panel of experts in the sensory evaluation of foods and beverages; assay: Sensory evaluation of sweetness onset and sweetness linger by expert panel; assay type: in vivo, human; design: key to Sweetness Linger: 0: no sweetness linger; 1: very slight sweetness linger; 2: slight sweetness linger; 3: moderate sweetness linger; 4: moderately high sweetness linger; 5: high sweetness linger; key to Sweetness Onset: 1: quick onset; 2: moderate onset; 3: slow onset; settings: for Sweetness Linger: rating scale 0-5, sweetness 2-3 min after water rinse, for ranges the lowest rating of all levels is reported; for Sweetness Onset: rating scale 1-3, ca. 10 mL sample tasted and expectorated, sucrose and neotame controls for calibration
Method: An exemplary method of sensory evaluation is provided in the following protocol, similar to that described hereinabove. In this test protocol, none of the samples were swallowed. All samples were expectorated and the mouth was rinsed with water after the tasting. In step 1, the 10% sucrose control sample was tasted by distributing ca. 10 mL of sample quickly throughout the oral cavity, wherein the maximal “Sweetness Intensity” was measured. This intensity is defined as a 10 on a 0-15 scale where 0 is defined as no perceptible sweetness and 15, the sweetness of 15% sucrose. The “Overall Quality” of the taste was also measured in the sucrose control and was defined as a 6 on a 1-9 scale. Immediately upon sensing maximal sweetness, the sample was expectorated, the mouth was rinsed with water and the rate of sweetness decay (“Sweetness Linger”) and “Sweetness Onset” were measured, where attention was focused on the sweetness 2-3 min after the water rinse. The sweetness linger was rated by a panel of experts in the sensory evaluation of foods and beverages using the following scale: 0=no sweetness linger, 1=very slight sweetness linger, 2=slight sweetness linger, 3=moderate sweetness linger, 4=moderately high sweetness linger, 5=high sweetness linger. The sweetness onset was rated by a panel of experts using the following scale: 1=quick onset, 2=moderate onset, 3 slow onset. After sample tasting was complete, a salty oyster cracker was chewed followed by a water rinse, and at least 5 minutes followed before tasting the next sample.
The “Sweetness Linger” rating for sucrose observed by this protocol was defined as 0 and the “Sweetness Onset” was defined as 1. The Sweetness Onset and Sweetness Linger of a neotame control sample were defined as 3 and 5, respectively.
Following calibration with the sucrose and neotame control samples, the experimental samples were tasted by the same protocol, always allowing sufficient time between samples to ensure re-equilibration of the sensory system. Re-tasting of control samples during the course of the experiment was allowed and encouraged.
The comparison taste test was performed between two controls and addition of sweet taste improving additive on the onset and/or sweetness linger.
In Examples A1-A7, where there are ranges provided, the beverage samples were made with 5-7 levels from the top to the bottom of the range, using a 1:1 dilution of the corresponding sweet taste improving compositions. The sweetness linger rating reported was the most sugar-like in sweetness linger (the lowest numerical value) attained of all the samples (i.e., the shortest sweetness linger).

Osmolarity of solution = assay type: physicochemical; settings: sucrose at 10%
From the text: Average concentrations of inorganic ions present in saliva, which are responsible for nearly all of the osmolarity of saliva, are as illustrated in Table 1 below. From the data shown, it is clear that saliva typically has an osmolarity of 70 mOsM. Sucrose at 10%, however, is 292 mOsM, more than 4-fold higher, and therefore will cause significant shrinkage of taste bud cell volume and signaling to the central nervous system (CNS). Osmolarity refers to the measure of osmoles of solute per liter of solution, wherein osmole is equal to the number of moles of osmotically active particles in an ideal solution (e.g., a mole of glucose is one osmole), whereas a mole of sodium chloride is two osmoles (one mole of sodium and one mole of chloride). Thus, in order to improve in the quality of taste of synthetic sweeteners, the osmotically active compounds or the compounds which impart osmolarity must not introduce significant off taste to the formulation.

osmolarity (Osmolarity of solution) | SMILES | Sweetness Linger [1] | Sweetness Onset [1] | Sweetness Linger ([1]; listed as sugar)
– | COC(=O)[C@H](Cc1ccccc1)NC(=O)[C@H](CC(=O)O)NCCC(C)(C)C [neotame] | 5 | 3 | –
292 mOsM | OC[C@H]1O[C@@](CO)(O[C@H]2O[C@H](CO)[C@@H](O)[C@H](O)[C@H]2O)[C@@H](O)[C@@H]1O [sucrose] | 0 | 1 | 1

From US20070275147A1, “SYNTHETIC SWEETENER COMPOSITIONS WITH IMPROVED TEMPORAL PROFILE AND/OR FLAVOR PROFILE, METHODS FOR THEIR FORMULATION, AND USES” (THE COCA-COLA COMPANY, priority 2005, published 2007)
